Reference: patent publication US7423038B2, “Compounds and compositions as protein kinase inhibitors” (IRM LLC (a Delaware Limited Liability Corporation), priority 2004, dated 2008)

Assays:
[1] = molecular target: T1, Flt3 (Homo sapiens, UniProt P36888); assay: Upstate KinaseProfiler radio-enzymatic filter binding assay, Flt3; format: biochemical; details: at a concentration of 10 μM; read-out: percentage inhibition of Flt3
T1 construct: purchased Upstate (KinaseProfiler panel)
Method: (§1) Compounds of the invention are assessed for their ability to inhibit individual members of the kinase panel. The compounds are tested in duplicates at a final concentration of 10 μM following this generic protocol, Note that the kinase buffer composition and the substrates vary for the different kinases included in the “Upstate KinaseProfiler™” panel. Kinase buffer (2.5 μL, 10x—containing MnCl2 when required), active kinase (0.001-0.01 Units; 2.5 μL), specific or Poly(Glu-4-Tyr) peptide (5-500 μM or 0.01 mg/ml) in kinase buffer and kinase buffer ([…]; 5 μL) are mixed in an eppendorf on ice. A Mg/ATP mix (10 μL; 67.5 (or 33.75) mM MgCl2, 450 (or 225) μM ATP and 1 μCi/μl [γ-^32P]-ATP (3000 Ci/mmol)) is added and the reaction is incubated at about 30° C. for about 10 minutes. The reaction mixture is spotted (20 μL) onto a 2 cm×2 cm P81 (phosphocellulose, for positively charged peptide substrates) or Whatman No, 1 (for Poly (Glu-4-Tyr) peptide substrate) paper square. The assay squares are washed 4 times, for 5 minutes each, with 0.75% phosphoric acid and washed once with acetone for 5 minutes. The assay squares are transferred to a scintillation vial, 5 ml scintillation cocktail are added and ^32P incorporation (cpm) to the peptide substrate is quantified with a Beckman scintillation counter. Percentage inhibition is calculated for each reaction.

[2] = molecular target: T2, JNK2α2 (Homo sapiens, UniProt P45984); assay: Upstate KinaseProfiler radio-enzymatic filter binding assay, JNK2α2; format: biochemical; details: at a concentration of 10 μM; read-out: percentage inhibition of JNK2α2
T2 construct: purchased Upstate (KinaseProfiler panel)
Method: as §1

[3] = molecular target: T3, TrkB (Homo sapiens, UniProt Q16620); assay: Upstate KinaseProfiler radio-enzymatic filter binding assay, TrkB; format: biochemical; details: at a concentration of 10 μM; read-out: percentage inhibition of TrkB
T3 construct: purchased Upstate (KinaseProfiler panel)
T3 sequence (Q16620 32-822): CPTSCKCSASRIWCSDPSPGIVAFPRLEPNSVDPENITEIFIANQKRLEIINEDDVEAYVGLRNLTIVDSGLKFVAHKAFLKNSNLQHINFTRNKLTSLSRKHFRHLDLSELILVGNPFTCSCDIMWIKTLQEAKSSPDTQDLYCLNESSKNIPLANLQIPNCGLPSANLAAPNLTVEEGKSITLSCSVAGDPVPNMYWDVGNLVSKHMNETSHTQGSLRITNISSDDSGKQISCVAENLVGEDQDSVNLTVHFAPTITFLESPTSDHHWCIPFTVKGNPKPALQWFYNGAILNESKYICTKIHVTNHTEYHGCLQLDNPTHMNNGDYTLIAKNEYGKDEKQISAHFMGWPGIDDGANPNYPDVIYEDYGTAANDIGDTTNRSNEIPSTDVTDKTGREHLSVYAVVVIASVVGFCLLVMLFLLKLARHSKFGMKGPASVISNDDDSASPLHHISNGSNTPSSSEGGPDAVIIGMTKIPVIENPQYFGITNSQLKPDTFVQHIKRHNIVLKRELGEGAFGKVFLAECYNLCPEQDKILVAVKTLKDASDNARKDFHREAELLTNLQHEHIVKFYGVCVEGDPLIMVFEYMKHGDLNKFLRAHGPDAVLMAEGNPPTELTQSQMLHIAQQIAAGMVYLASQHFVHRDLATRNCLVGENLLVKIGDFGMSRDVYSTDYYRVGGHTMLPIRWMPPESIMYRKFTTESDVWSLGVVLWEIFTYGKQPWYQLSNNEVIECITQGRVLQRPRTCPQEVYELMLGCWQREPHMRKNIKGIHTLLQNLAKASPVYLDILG
Method: as §1

[4] = molecular target: T4, MKK6 (Homo sapiens, UniProt P52564); assay: Upstate KinaseProfiler radio-enzymatic filter binding assay, MKK6; format: biochemical; details: at a concentration of 10 μM; read-out: percentage inhibition of MKK6
T4 construct: purchased Upstate (KinaseProfiler panel)
T4 sequence (P52564 whole entry): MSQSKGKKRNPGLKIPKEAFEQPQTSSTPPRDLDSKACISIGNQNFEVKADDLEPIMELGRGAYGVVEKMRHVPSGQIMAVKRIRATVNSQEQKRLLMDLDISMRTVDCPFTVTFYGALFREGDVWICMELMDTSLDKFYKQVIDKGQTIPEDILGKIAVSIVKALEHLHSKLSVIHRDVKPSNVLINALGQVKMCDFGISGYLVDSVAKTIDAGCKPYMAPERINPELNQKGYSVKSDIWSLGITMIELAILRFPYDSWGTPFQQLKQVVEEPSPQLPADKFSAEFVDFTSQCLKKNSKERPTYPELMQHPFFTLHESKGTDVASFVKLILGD
Text: (§2) “Kinase Panel” is a list of kinases comprising Abl(human), Abl(T315I), JAK2, JAK3, ALK, JNK1α1, ALK4, KDR, Aurora-A, Lck, Blk, MAFK1, Bmx, MAPKAP-K2, BRK, MEK1, CaMKII(rat), Met, CDK1/cyclinB, p70S6K, CHK2, PAK2, CK1, PDGFRα, CK2, PDK1, c-kit, Pim-2, c-RAF, PKA(h), CSK, PKBα, cSrc, PKCα, DYRK2, Plk3, EGFR, ROCK-I, Fes, Ron, FGFR3, Ros, Flt3, SAPK2α, Fms, SGK, Fyn, SIK, GSK3β, Syk, IGF-IR, Tie-2, IKKβ, TrKB, IR, WNK3, IRAK4, ZAP-70, ITK, AMPK(rat), LIMK1, Rsk2, Ax1, LKB1, SAFK2β, BrSK2, Lyn (h), SAPK3, BTK, MAPKAP-K3, SAPK4, CaMKIV, MARK1, Snk, CDK2/cyclinA, MINK, SRPK1, CDK3/cyclinE, MKK4(m), TAK1, CDK5/p25, MKK6(h), TBK1, CDK6/cyclinD3, MLCK, TrkA, CDK7/cyclinH/MAT1, MRCKβ, TSSK1, CHK1, MSK1, Yes, CK1d, MST2, ZIPK, c-Kit (D816V), MuSK, DAPK2, NEK2, DDR2, NEK6, DMPK, PAK4, DRAK1, PAR-1Bα, EphA1, PDGFRβ, EphA2, Pim-1, EphA5, PKBβ, EphB2, PKCβI, EphB4, PKCδ, FGFR1, PKCη, FGFR2, PKCθ, FGFR4, PKD2, Fgr, PKG1β, Flt1, PRK2, Hck, PYK2, HIPK2, Ret, IKKα, RIPK2, IRR, ROCK-II(human), JNK2α2, Rse, JNK3, Rsk1(h), PI3 Kγ, PI3 Kδ and PI3-Kβ. […]
(§3) Compounds of the invention are assessed for their ability to inhibit individual members of the kinase panel. […] The assay squares are transferred to a scintillation vial, 5 ml scintillation cocktail are added and ^32P incorporation (cpm) to the peptide substrate is quantified with a Beckman scintillation counter. […]

[5] = molecular target: T5, IR (Homo sapiens, UniProt P06213); assay: Upstate KinaseProfiler radio-enzymatic filter binding assay, IR; format: biochemical; details: at a concentration of 10 μM; read-out: percentage inhibition of IR
T5 construct: purchased Upstate (KinaseProfiler panel)
T5 sequence (P06213 28-1382): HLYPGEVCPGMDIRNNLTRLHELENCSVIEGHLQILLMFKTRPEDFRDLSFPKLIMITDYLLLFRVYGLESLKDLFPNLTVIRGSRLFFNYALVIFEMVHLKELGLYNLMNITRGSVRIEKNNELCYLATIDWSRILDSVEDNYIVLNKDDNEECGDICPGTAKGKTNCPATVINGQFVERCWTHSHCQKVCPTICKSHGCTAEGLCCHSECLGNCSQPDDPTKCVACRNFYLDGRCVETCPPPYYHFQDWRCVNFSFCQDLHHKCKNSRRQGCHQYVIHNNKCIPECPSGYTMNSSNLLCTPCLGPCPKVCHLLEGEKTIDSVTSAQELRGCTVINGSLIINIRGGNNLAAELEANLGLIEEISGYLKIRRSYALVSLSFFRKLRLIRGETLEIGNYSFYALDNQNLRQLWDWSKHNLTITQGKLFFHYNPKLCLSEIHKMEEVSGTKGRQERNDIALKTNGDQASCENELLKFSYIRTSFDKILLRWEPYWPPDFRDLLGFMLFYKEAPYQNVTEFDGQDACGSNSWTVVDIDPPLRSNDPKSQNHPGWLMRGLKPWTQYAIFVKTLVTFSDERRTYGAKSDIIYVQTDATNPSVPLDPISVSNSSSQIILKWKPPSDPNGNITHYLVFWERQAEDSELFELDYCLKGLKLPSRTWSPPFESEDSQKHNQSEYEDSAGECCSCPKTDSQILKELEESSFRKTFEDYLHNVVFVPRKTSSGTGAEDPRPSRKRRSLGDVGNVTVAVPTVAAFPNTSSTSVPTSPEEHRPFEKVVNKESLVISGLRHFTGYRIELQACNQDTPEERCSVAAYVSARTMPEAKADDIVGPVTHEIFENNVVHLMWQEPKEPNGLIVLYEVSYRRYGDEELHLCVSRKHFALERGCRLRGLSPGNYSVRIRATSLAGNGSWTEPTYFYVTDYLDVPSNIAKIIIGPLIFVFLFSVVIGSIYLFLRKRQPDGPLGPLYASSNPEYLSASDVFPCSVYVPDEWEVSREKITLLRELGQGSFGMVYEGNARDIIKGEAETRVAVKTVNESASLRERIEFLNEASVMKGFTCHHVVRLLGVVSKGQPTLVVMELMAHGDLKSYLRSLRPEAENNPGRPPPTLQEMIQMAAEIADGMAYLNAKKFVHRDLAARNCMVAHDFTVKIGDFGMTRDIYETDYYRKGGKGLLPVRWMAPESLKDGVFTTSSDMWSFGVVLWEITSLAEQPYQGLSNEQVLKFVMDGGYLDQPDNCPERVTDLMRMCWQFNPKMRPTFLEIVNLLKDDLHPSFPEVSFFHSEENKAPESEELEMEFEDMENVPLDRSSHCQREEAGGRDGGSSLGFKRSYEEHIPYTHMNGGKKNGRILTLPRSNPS
Method: as §1

[6] = molecular target: T6, wild type Bcr-abl (Homo sapiens, UniProt P00519); assay: Antiproliferative effect on Ba/F3 cells expressing wild type Bcr-abl; format: cell-based
T6 construct: BCR (fusion partner); expressed in transfected cells; host or cells: Ba/F3 (murine pro-B cells); the other entry of the earlier key: BCR (P11274, Breakpoint cluster region protein)
Method: (§4) 32D-p210 cells are plated into 96 well TC plates at a density of 15,000 cells per well. 50 μL of two fold serial dilutions of the test compound (Cmax is 40 μM) are added to each well (STI571 is included as a positive control). After incubating the cells for 48 hours at 37° C., 5% CO2, 15 μl, of MTT (Promega) is added to each well and the cells are incubated for an additional 5 hours. The optical density at 570 nm is quantified spectrophotometrically and IC50 values, the concentration of compound required for 50% inhibition, determined from a dose response curve.
(§5) Compounds of the invention are tested for their antiproliferative effect on Ba/F3 cells expressing either wild type or the mutant forms of BCR-Abl (G250E, E255V, T315I, F317L, M351T) that confers resistance or diminished sensitivity to STI571. The antiproliferative effect of these compounds on the mutant-BCR-Abl expressing cells and on the non transformed cells were tested at 10, 3.3, 1.1 and 0.37 μM as described above (in media lacking IL3). The IC50 values of the compounds lacking toxicity on the untransformed cells were determined from the dose response curves obtained as describe above.

[7] = molecular target: T7, T315I Bcr-abl (Homo sapiens, UniProt P00519, T315I); assay: Antiproliferative effect on Ba/F3 cells expressing T315I Bcr-abl; format: cell-based; details: T315I mutant
T7 construct: BCR (fusion partner); expressed in transfected cells; host or cells: Ba/F3 (murine pro-B cells); the other entry of the earlier key: BCR (P11274, Breakpoint cluster region protein)
Method: as §4, §5

[8] = molecular target: T8, SAPK2α (Homo sapiens, UniProt Q16539); assay: Upstate KinaseProfiler radio-enzymatic filter binding assay, SAPK2α; format: biochemical; details: at a concentration of 10 μM; read-out: percentage inhibition of SAPK2α
T8 construct: purchased Upstate (KinaseProfiler panel)
T8 sequence (Q16539 whole entry): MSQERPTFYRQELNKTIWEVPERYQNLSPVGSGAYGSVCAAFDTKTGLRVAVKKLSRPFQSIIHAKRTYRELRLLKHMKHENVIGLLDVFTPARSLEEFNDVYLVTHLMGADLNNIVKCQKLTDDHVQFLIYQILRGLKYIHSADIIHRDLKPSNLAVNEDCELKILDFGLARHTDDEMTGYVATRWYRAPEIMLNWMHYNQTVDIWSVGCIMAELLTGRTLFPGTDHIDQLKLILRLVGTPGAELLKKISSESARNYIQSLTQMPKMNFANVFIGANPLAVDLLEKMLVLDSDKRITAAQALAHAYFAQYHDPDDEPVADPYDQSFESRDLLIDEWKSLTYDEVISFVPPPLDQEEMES
Method: as §1

[9] = molecular target: T9, Syk (Homo sapiens, UniProt P43405); assay: Upstate KinaseProfiler radio-enzymatic filter binding assay, Syk; format: biochemical; details: at a concentration of 10 μM; read-out: percentage inhibition of Syk
T9 construct: purchased Upstate (KinaseProfiler panel)
Method: as §1

[10] = molecular target: T10, c-RAF (Homo sapiens, UniProt P04049); assay: Upstate KinaseProfiler radio-enzymatic filter binding assay, c-RAF; format: biochemical; details: at a concentration of 10 μM; read-out: percentage inhibition of c-RAF
T10 construct: purchased Upstate (KinaseProfiler panel)
T10 sequence (P04049 whole entry): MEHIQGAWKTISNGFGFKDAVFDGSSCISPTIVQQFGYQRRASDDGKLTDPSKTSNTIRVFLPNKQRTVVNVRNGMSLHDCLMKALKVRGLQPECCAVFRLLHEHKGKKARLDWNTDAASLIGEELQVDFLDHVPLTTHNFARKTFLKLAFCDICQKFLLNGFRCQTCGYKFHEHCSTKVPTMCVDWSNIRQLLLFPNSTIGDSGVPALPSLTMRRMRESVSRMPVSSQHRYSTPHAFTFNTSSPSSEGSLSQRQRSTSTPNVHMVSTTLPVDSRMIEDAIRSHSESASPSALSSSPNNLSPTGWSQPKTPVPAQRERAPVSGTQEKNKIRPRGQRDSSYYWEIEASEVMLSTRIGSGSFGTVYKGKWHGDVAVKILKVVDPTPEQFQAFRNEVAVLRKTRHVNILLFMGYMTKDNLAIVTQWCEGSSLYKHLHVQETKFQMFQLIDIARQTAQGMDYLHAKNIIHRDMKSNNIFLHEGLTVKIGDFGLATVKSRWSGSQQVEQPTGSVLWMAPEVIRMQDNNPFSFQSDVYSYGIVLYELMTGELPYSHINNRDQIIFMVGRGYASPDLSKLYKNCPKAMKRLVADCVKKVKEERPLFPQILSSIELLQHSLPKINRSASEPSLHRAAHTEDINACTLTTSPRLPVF
Method: as §1

[11] = molecular target: T11, Bmx (Homo sapiens, UniProt P51813); assay: Upstate KinaseProfiler radio-enzymatic filter binding assay, Bmx; format: biochemical; details: at a concentration of 10 μM; read-out: percentage inhibition of Bmx
T11 construct: purchased Upstate (KinaseProfiler panel)
T11 sequence (P51813 whole entry): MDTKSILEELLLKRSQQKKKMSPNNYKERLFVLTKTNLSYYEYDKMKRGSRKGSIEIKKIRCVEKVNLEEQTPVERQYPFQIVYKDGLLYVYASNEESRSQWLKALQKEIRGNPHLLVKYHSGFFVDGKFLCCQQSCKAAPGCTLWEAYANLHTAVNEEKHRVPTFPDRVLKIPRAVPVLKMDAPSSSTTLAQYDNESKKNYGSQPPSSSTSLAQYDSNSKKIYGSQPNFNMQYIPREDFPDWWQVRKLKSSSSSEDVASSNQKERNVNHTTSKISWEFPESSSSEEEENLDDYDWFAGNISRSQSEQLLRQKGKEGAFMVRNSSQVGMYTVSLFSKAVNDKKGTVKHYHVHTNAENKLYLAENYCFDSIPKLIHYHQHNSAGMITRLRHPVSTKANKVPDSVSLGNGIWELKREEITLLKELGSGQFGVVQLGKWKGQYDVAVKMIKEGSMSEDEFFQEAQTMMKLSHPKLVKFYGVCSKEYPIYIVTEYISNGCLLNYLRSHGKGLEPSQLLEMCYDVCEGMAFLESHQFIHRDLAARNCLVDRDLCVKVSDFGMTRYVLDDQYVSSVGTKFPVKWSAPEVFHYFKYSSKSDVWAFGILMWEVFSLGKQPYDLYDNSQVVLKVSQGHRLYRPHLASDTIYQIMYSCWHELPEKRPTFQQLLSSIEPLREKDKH
Method: as §1

[12] = molecular target: T12, p70S6K (Homo sapiens, UniProt P23443); assay: Upstate KinaseProfiler radio-enzymatic filter binding assay, p70S6K; format: biochemical; details: at a concentration of 10 μM; read-out: percentage inhibition of p70S6K
T12 construct: purchased Upstate (KinaseProfiler panel)
T12 sequence (P23443 whole entry): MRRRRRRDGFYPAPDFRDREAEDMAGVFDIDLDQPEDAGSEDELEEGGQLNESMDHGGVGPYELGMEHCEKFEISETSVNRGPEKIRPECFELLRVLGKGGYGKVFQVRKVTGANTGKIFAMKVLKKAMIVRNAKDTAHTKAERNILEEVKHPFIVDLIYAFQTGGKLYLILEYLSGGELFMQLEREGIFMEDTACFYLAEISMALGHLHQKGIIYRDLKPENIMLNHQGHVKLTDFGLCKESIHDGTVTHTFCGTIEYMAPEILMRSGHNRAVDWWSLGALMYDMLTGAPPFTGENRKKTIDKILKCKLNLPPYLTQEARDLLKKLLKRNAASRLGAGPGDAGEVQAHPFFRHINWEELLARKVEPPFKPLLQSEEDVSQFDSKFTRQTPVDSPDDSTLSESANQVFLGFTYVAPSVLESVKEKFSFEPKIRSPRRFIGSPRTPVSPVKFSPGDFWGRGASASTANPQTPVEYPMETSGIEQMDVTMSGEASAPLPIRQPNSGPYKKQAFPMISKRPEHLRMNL
Method: as §1

[13] = molecular target: T13, F317L Bcr-abl (Homo sapiens, UniProt P00519, F317L); assay: Antiproliferative effect on Ba/F3 cells expressing F317L Bcr-abl; format: cell-based; details: F317L mutant
T13 construct: BCR (fusion partner); expressed in transfected cells; host or cells: Ba/F3 (murine pro-B cells); the other entry of the earlier key: BCR (P11274, Breakpoint cluster region protein)
Method: as §4, §5

[14] = molecular target: T14, E255V Bcr-abl (Homo sapiens, UniProt P00519, E255V); assay: Antiproliferative effect on Ba/F3 cells expressing E255V Bcr-abl; format: cell-based; details: E255V mutant
T14 construct: BCR (fusion partner); expressed in transfected cells; host or cells: Ba/F3 (murine pro-B cells); the other entry of the earlier key: BCR (P11274, Breakpoint cluster region protein)
Method: as §4, §5

[15] = molecular target: T15, JNK1α1 (Homo sapiens, UniProt P45983); assay: Upstate KinaseProfiler radio-enzymatic filter binding assay, JNK1α1; format: biochemical; details: at a concentration of 10 μM; read-out: percentage inhibition of JNK1α1
T15 construct: purchased Upstate (KinaseProfiler panel)
Method: as §1

[16] = molecular target: T16, Lck (Homo sapiens, UniProt P06239); assay: Upstate KinaseProfiler radio-enzymatic filter binding assay, Lck; format: biochemical; details: at a concentration of 10 μM; read-out: percentage inhibition of Lck
T16 construct: purchased Upstate (KinaseProfiler panel)
Method: as §1

[17] = molecular target: T17, MKK4 (Mus musculus, UniProt P47809); assay: Upstate KinaseProfiler radio-enzymatic filter binding assay, MKK4; format: biochemical; details: at a concentration of 10 μM; read-out: percentage inhibition of MKK4
T17 construct: purchased Upstate (KinaseProfiler panel)
Text: as §2, §3

[18] = molecular target: T18, M351T Bcr-abl (Homo sapiens, UniProt P00519, M351T); assay: Antiproliferative effect on Ba/F3 cells expressing M351T Bcr-abl; format: cell-based; details: M351T mutant
T18 construct: BCR (fusion partner); expressed in transfected cells; host or cells: Ba/F3 (murine pro-B cells); the other entry of the earlier key: BCR (P11274, Breakpoint cluster region protein)
Method: as §4, §5

[19] = molecular target: T19, G250E Bcr-abl (Homo sapiens, UniProt P00519, G250E); assay: Antiproliferative effect on Ba/F3 cells expressing G250E Bcr-abl; format: cell-based; details: G250E mutant
T19 construct: BCR (fusion partner); expressed in transfected cells; host or cells: Ba/F3 (murine pro-B cells); the other entry of the earlier key: BCR (P11274, Breakpoint cluster region protein)
Method: as §4, §5

[20] = molecular target: T20, CSK (Homo sapiens, UniProt P41240); assay: Upstate KinaseProfiler radio-enzymatic filter binding assay, CSK; format: biochemical; details: at a concentration of 10 μM; read-out: percentage inhibition of CSK
T20 construct: purchased Upstate (KinaseProfiler panel)
Method: as §1

[21] = molecular target: T21, FGFR3 (Homo sapiens, UniProt P22607); assay: Upstate KinaseProfiler radio-enzymatic filter binding assay, FGFR3; format: biochemical; details: at a concentration of 10 μM; read-out: percentage inhibition of FGFR3
T21 construct: purchased Upstate (KinaseProfiler panel)
Method: as §1

[22] = molecular target: T22, SAPK2β (Homo sapiens, UniProt Q15759); assay: Upstate KinaseProfiler radio-enzymatic filter binding assay, SAPK2β; format: biochemical; details: at a concentration of 10 μM; read-out: percentage inhibition of SAPK2β
T22 construct: purchased Upstate (KinaseProfiler panel)
T22 sequence (Q15759 whole entry): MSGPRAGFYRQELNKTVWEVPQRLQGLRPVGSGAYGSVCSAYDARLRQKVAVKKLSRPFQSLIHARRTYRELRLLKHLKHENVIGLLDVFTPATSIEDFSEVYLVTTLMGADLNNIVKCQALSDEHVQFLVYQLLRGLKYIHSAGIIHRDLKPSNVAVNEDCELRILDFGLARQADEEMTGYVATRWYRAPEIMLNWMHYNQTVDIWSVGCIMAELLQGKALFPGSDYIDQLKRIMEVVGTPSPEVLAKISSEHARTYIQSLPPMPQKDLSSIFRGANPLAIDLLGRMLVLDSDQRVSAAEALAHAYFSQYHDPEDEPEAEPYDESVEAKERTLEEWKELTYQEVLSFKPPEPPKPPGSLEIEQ
Method: as §1

[23] = molecular target: T23, Fes (Homo sapiens, UniProt P07332); assay: Upstate KinaseProfiler radio-enzymatic filter binding assay, Fes; format: biochemical; details: at a concentration of 10 μM; read-out: percentage inhibition of Fes
T23 construct: purchased Upstate (KinaseProfiler panel)
Method: as §1

[24] = molecular target: T24, Rsk1 (Homo sapiens, UniProt Q15418); assay: Upstate KinaseProfiler radio-enzymatic filter binding assay, Rsk1; format: biochemical; details: at a concentration of 10 μM; read-out: percentage inhibition of Rsk1
T24 construct: purchased Upstate (KinaseProfiler panel)
Text: as §2, §3

[25] = molecular target: T25, GSK3β (Homo sapiens, UniProt P49841); assay: Upstate KinaseProfiler radio-enzymatic filter binding assay, GSK3β; format: biochemical; details: at a concentration of 10 μM; read-out: percentage inhibition of GSK3β
T25 construct: purchased Upstate (KinaseProfiler panel)
Method: as §1

[26] = molecular target: T26, PDGFRα (Homo sapiens, UniProt P16234); assay: Upstate KinaseProfiler radio-enzymatic filter binding assay, PDGFRα; format: biochemical; details: at a concentration of 10 μM; read-out: percentage inhibition of PDGFRα
T26 construct: purchased Upstate (KinaseProfiler panel)
Method: as §1

SMILES: Cc1ccc(Nc2ncc3nc(-c4cc(NC(=O)c5cccc(C(F)(F)F)c5)ccc4C)c(=O)n(C)c3n2)cn1 [Example 2, N-[4-methyl-3-(8-methyl-2-(6-methyl-pyridin-3-ylamino)7-oxo-7,8-dihydropteridin-6-yl)-phenyl]-3-trifluoromethyl-benzamide]
- inhibition at 10 µM [1]: 64%
- inhibition at 10 µM [2]: 99%
- inhibition at 10 µM [3]: 96%
- inhibition at 10 µM [4]: 97%
- inhibition at 10 µM [5]: 60%
- IC50 [6]: < 0.0005 µM
- IC50 [7]: 0.055 µM
- inhibition at 10 µM [8]: 95%
- inhibition at 10 µM [9]: 76%
- inhibition at 10 µM [10]: 100%
- inhibition at 10 µM [11]: 100%
- inhibition at 10 µM [12]: 98%
- IC50 [13]: < 0.0005 µM
- IC50 [14]: 0.013 µM
- inhibition at 10 µM [15]: 98%
- inhibition at 10 µM [16]: 98%
- inhibition at 10 µM [17]: 92%
- IC50 [18]: < 0.0005 µM
- IC50 [19]: 0.023 µM
- inhibition at 10 µM [20]: 98%
- inhibition at 10 µM [21]: 98%
- inhibition at 10 µM [22]: 99%
- inhibition at 10 µM [23]: 100%
- inhibition at 10 µM [24]: 90%
- inhibition at 10 µM [25]: 53%
- inhibition at 10 µM [26]: 76%
